# Laboratory results: patent US20170283440A1, “CARM1 INHIBITORS AND USES THEREOF” (Epizyme, Inc., priority 2014, published 2017)
# pIC50: −log10 of the molar value.
# Test system: asymmetric di-methyl PABP1 in RKO cells
# Assay: RKO methylation assay (In Cell Western for asymmetric di-methyl PABP1)
# Format: cell-based
# Settings: 48 hours incubation, read-out: Cellular IC50
# Excerpt: RKO adherent cells were purchased from ATCC (American Type Culture Collection), Manassas, Va., USA. DMEM/Glutamax medium, penicillin-streptomycin, heat inactivated fetal bovine serum, 0.05% trypsin and D-PBS were purchased from Life Technologies, Grand Island, N.Y., USA. Odyssey blocking buffer, 800CW goat anti-rabbit IgG (H+L) antibody, and Licor Odyssey infrared scanner were purchased from Licor Biosciences, Lincoln, Nebr., USA. Asymmetric di-methyl PABP1 antibody was purchased from Cell Signaling Technology, Danvers, Mass., USA. Methanol was purchased from VWR, Franklin, Mass., USA. 10% Tween 20 was purchased from KPL, Inc., Gaithersburg, Md., USA. Paraformaldehyde (PFA) was purchased from EM Sciences. DRAQ5 was purchased from Biostatus Limited, Leicestershire, UK.
# RKO adherent cells were maintained in growth medium (DMEM/Glutamax medium supplemented with 10% v/v heat inactivated fetal bovine serum and 100 units/mL penicillin-streptomycin) and cultured at 37° C. under 5% CO2.
# Compound (100 nL) from a 96-well source plate was added directly to 384 well cell plate. Plates were incubated at 37° C., 5% CO2 for 48 hours. After two days of incubation, plates were brought to room temperature outside of the incubator for ten minutes and blotted on paper towels to remove cell media. Cells were fixed for 20 minutes at room temperature by adding 50 ul of 8% PFA followed by aspiration of supernatant with the Biotek EL406 plate washer. Cells were then permeabilized by addition of 50 μL of ice cold 100% methanol directly to each well and incubated for 30 min at room temperature. After 30 min, plates were transferred to a Biotek EL406 plate washer and washed 2 times with 100 μL per well of wash buffer (IX PBS). Next 60 μL per well of Odyssey blocking buffer (Odyssey Buffer with 0.1% Tween 20 (v/v)) were added to each plate and incubated 1 hour at room temperature. Blocking buffer was removed and 20 μL per well of primary antibody was added (asymmetric-methyl PABP1) diluted 1:400 in Odyssey buffer with 0.1% Tween 20 (v/v)) and plates were incubated overnight (16 hours) at 4° C. Plates were washed 5 times with 100 μL per well of wash buffer. Next 20 μL per well of secondary antibody was added (1:800 800CW goat anti-rabbit IgG (H+L) antibody, 1:2000 DRAQ5 in Odyssey buffer with 0.1% Tween 20 (v/v)) and incubated for 1 hour at room temperature. The plates were washed 5 times with 100 μL per well wash buffer then 2 times with 100 μL per well of water. Plates were allowed to dry at room temperature then imaged on the Licor Odyssey machine which measures integrated intensity at 700 nm and 800 nm wavelengths. Both 700 and 800 channels were scanned.
# First, the ratio for each well was determined by:
# Each plate included fourteen control wells of DMSO only treatment (minimum inhibition) as well as fourteen control wells for maximum inhibition treated with 20 μM of a reference compound. The average of the ratio values for each control type was calculated and used to determine the percent […] for each test well in the plate. Reference compound was serially diluted three-fold in DMSO for a total of nine test concentrations, beginning at 20 μM.
# Percent inhibition was determined and IC50 curves were generated using triplicate wells per concentration of compound.
row,pIC50,SMILES
1,< 4.70,CC(C)n1ncc2c(N3CCOCC3)cc(-c3cccc(CCC(O)CN)c3)nc21 (centres unmarked) [Example 31-9]

# Same assay, conditions: Homo sapiens, 48 hours incubation, read-out: Cellular IC50
row,pIC50,SMILES
1,< 4.70,CNCC(O)COc1cc(Cl)cc(-c2cc(N(C)[C@@H]3CCOC3)n3ncc(C(C)C)c3n2)c1 (some centres unmarked) [Example 40-6]
2,< 4.70,CNCC(O)COc1cc(OC)cc(-c2cc(Nc3ncccn3)n3ncc(C(C)C)c3n2)c1 (centres unmarked) [Example 31-6]
3,< 4.70,CC(C)n1ncc2c(N3CCOCC3)cc(-c3cc(OC[C@H](O)CN)cc(OC[C@H](O)CN)c3)nc21 [Example 25-9]
4,< 4.70,CNCC(O)COc1cccc(-c2cc(N3CC4(CCOCC4)C3)n3ncc(C(C)C)c3n2)c1 (centres unmarked) [Example 32-6]
5,4.70 to 5.00,CNCC(O)COc1cccc(-c2nc(NCc3cn4cccc(C)c4n3)c3cnn(C4CC4)c3n2)c1 (centres unmarked) [Example 44-5]
6,< 4.70,CNCC(O)COc1cccc(-c2nc(NCc3ccc[n+]([O-])c3)c3cnn(C4CC4)c3n2)c1 (centres unmarked) [Example 32-5]

# Second part, the molecule before the results:
row,SMILES,pIC50
1,CNCC(O)COc1cc(OC)cc(-c2cc(N(C)C3CCOCC3)c3c(C)nn(C(C)C)c3n2)c1 (centres unmarked) [Example 25-4],4.70 to 5.00
2,CNCC(O)COc1cc(OC)cc(-c2cc(N3CCOCC3)n3ncc(C(C)C)c3n2)c1 (centres unmarked) [Example 22-6],< 4.70
3,CNCC(O)COc1cc(OC)cc(-c2cc(N[C@H]3CCOC3)n3ncc(C(C)C)c3n2)c1 (some centres unmarked) [Example 23-6],< 4.70
4,CC(C)(C)c1cnn2c(NC3CCOCC3)cc(-c3cccc(OCC(O)CN)c3)nc12 (centres unmarked) [Example 12-8],< 4.70
5,CNCC(O)COc1cc(Cl)cc(-c2cc(N3C4CCC3COC4)n3ncc(C(C)C)c3n2)c1 (centres unmarked) [Example 46-6],< 4.70
6,CC(C)(C)c1cnn2c(NC3CCOCC3)cc(-c3cc(Cl)cc(OCC(O)CN)c3)nc12 (centres unmarked) [Example 15-8],< 4.70
7,CNCC(O)COc1cc(OC)cc(-c2cc(N[C@@H]3CCOC3)n3ncc(C(C)C)c3n2)c1 (some centres unmarked) [Example 24-6],< 4.70
8,Cc1cc(CNc2nc(-c3cccc(OCC(O)CN)c3)nc3c2cnn3C2CC2)n(C)n1 (centres unmarked) [Example 24-5],< 4.70
9,NCC(O)COc1cccc(-c2nc(N3CC4CCC(C3)O4)c3cnn(C4CC4)c3n2)c1 (centres unmarked) [Example 16-5],< 4.70

# Biological target: T1, Human CARM1 (PRMT4) (Homo sapiens, UniProt Q86X55)
# T1 construct: Flag-CARM1-His was eluted with 200 ug/ml FLAG peptide in buffer A; made in house; host or cells: HEK 293F cells infected with recombinant baculovirus (pFastBacMam)
# T1 sequence (Q86X55 other isoform, or with tags, fused parts or gaps): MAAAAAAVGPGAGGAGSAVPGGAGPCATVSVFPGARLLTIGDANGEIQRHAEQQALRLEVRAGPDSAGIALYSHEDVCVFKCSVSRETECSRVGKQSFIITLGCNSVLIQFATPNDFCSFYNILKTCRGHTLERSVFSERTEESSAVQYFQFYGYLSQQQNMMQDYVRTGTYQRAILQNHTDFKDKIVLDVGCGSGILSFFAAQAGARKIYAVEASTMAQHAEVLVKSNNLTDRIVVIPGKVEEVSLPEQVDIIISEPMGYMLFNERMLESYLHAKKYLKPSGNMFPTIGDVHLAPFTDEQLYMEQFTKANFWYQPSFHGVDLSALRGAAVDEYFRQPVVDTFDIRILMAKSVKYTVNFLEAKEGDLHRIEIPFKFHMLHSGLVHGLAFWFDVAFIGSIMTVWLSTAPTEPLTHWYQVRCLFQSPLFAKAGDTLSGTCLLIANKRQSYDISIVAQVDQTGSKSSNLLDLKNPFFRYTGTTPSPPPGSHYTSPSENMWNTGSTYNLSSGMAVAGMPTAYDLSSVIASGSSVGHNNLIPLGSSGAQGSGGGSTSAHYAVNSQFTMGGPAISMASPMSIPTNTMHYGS
# Assay: CARM1 enzyme assay on peptide substrate (3H-SAM Flashplate)
# Format: biochemical
# Settings: CARM1 0.25 nM, 3H-SAM 30 nM, peptide 250 nM; read-out: Biochem IC50
# Excerpt: S-adenosylmethionine (SAM), S-adenosylhomocysteine (SAH), bicine, Tween20, dimethylsulfoxide (DMSO), bovine skin gelatin (BSG), sodium butyrate and Tris(2-carboxyethyl)phosphine hydrochloride solution (TCEP) were purchased from Sigma-Aldrich at the highest level of purity possible. ^3H-SAM was purchase from American Radiolabeled Chemicals with a specific activity of 80 Ci/mmol. 384-well streptavidin Flashplates were purchased from PerkinElmer.
# Peptide representative of human histone H3 residues 16-30 was synthesized with an N-terminal linker-affinity tag motif and a C-terminal amide cap by 21st Century Biochemicals. The peptide was purified by high-performance liquid chromatography (HPLC) to greater than 95% purity and confirmed by liquid chromatography mass spectrometry (LC-MS). The sequence was Biot-Ahx-[…]-amide and contained a monomethylated arginine at position 26 (SEQ ID NO.:1).
# Human CARM1 (PRMT4) (NM_199141.1) transcript clone was amplified from an HEK 293 cDNA library, incorporating a flanking 5′ sequence encoding a FLAG tag ([…]) (SEQ ID NO.:2) fused directly to Ala 2 of CARM1 and 3′ sequence encoding a hexa His sequence ([…]) (SEQ ID NO.:3) fused directly to Ser 608. The gene sequence encoding isoform1 containing a deletion of amino acids 539-561 was amplified subsequently and subcloned into pFastBacMam (Viva Biotech).
# Recombinant baculovirus were generated according to Bac-to-Bac kit instructions (Life Technologies). Protein over-expression was accomplished by infecting exponentially growing HEK 293F cell culture at 1.3×10^6 cell/ml with virus (MOI=10) in the presence of 8 mM sodium butyrate. Infections were carried out at 37° C. for 48 hours, harvested by centrifugation, and stored at −80° C. for purification.
# Column was washed with 500 mM NaCl in buffer A and Flag-CARM1-His was eluted with 200 ug/ml FLAG peptide in buffer A. Pooled fractions were dialyzed in 20 mM Tris, 150 mM NaCl, 5% glycerol and 1 mM DTT, pH 7.8. The purity of recovered protein was 94.
# The assays were all performed in a buffer consisting of 20 mM Bicine (pH=7.6), 1 mM TCEP, 0.005% BSG, and 0.002% Tween 20, prepared on the day of use. Compounds in 100% DMSO (1 ul) were spotted into a polypropylene 384-well V-bottom plates (Greiner) using a Platemate Plus outfitted with a 384-channel head (Thermo Scientific). DMSO (1 ul) was added to Columns 11, 12, 23, 24, rows A-H for the maximum signal control and 1 ul of SAH, a known product and inhibitor of CARM1, was added to columns 11, 12, 23, 24, rows I—P for the minimum signal control. A cocktail (40 ul) containing the CARM1 enzyme was added by Multidrop Combi (Thermo-Fisher). The compounds were allowed to incubate with CARM1 for 30 min at room temperature, then a cocktail (10 ul) containing ^3H-SAM and peptide was added to initiate the reaction (final volume=51 ul). The final concentrations of the components were as follows: CARM1 was 0.25 nM, ^3H-SAM was 30 nM, peptide was 250 nM, SAH in the minimum signal control wells was 1 mM, and the DMSO concentration was 2%. The assays were stopped by the addition of non-radiolabeled SAM (10 ul) to a final concentration of 300 uM, which dilutes the ^3H-SAM to a level where its incorporation into the peptide substrate is no longer detectable. 50 ul of the reaction in the 384-well polypropylene plate was then transferred to a 384-well Flashplate and the biotinylated peptides were allowed to bind to the streptavidin surface for at least 1 hour before being washed once with 0.1% Tween20 in a Biotek ELx405 plate washer. The plates were then read in a PerkinElmer TopCount plate reader to measure the quantity of ^3H-labeled peptide bound to the Flashplate surface, measured as disintegrations per minute (dpm) or alternatively, referred to as counts per minute (cpm).
# where dpm=disintegrations per minute, cmpd=signal in assay well, and min and max are the respective minimum and maximum signal controls. […]
row,pIC50,SMILES
1,> 7.00,CNCC(O)COc1cc(Cl)cc(-c2cc(N(C)[C@@H]3CCOC3)n3ncc(C(C)C)c3n2)c1 (some centres unmarked) [Example 40-6]
2,> 7.00,CNCC(O)COc1cc(OC)cc(-c2cc(Nc3ncccn3)n3ncc(C(C)C)c3n2)c1 (centres unmarked) [Example 31-6]
3,6.00 to 7.00,CC(C)n1ncc2c(N3CCOCC3)cc(-c3cc(OC[C@H](O)CN)cc(OC[C@H](O)CN)c3)nc21 [Example 25-9]
4,> 7.00,CNCC(O)COc1cccc(-c2cc(N3CC4(CCOCC4)C3)n3ncc(C(C)C)c3n2)c1 (centres unmarked) [Example 32-6]
5,6.00 to 7.00,CNCC(O)COc1cccc(-c2nc(NCc3cn4cccc(C)c4n3)c3cnn(C4CC4)c3n2)c1 (centres unmarked) [Example 44-5]
6,6.00 to 7.00,CNCC(O)COc1cccc(-c2nc(NCc3ccc[n+]([O-])c3)c3cnn(C4CC4)c3n2)c1 (centres unmarked) [Example 32-5]
7,6.00 to 7.00,CC(C)n1ncc2c(N3CCOCC3)cc(-c3cccc(CCC(O)CN)c3)nc21 (centres unmarked) [Example 31-9]

# Further lines, the molecule ahead of its results:
row,SMILES,pIC50
1,CNCC(O)COc1cc(OC)cc(-c2cc(N(C)C3CCOCC3)c3c(C)nn(C(C)C)c3n2)c1 (centres unmarked) [Example 25-4],> 7.00
2,CNCC(O)COc1cc(OC)cc(-c2cc(N3CCOCC3)n3ncc(C(C)C)c3n2)c1 (centres unmarked) [Example 22-6],> 7.00
3,CNCC(O)COc1cc(OC)cc(-c2cc(N[C@H]3CCOC3)n3ncc(C(C)C)c3n2)c1 (some centres unmarked) [Example 23-6],> 7.00
4,CC(C)(C)c1cnn2c(NC3CCOCC3)cc(-c3cccc(OCC(O)CN)c3)nc12 (centres unmarked) [Example 12-8],> 7.00
5,CNCC(O)COc1cc(Cl)cc(-c2cc(N3C4CCC3COC4)n3ncc(C(C)C)c3n2)c1 (centres unmarked) [Example 46-6],> 7.00
6,CC(C)(C)c1cnn2c(NC3CCOCC3)cc(-c3cc(Cl)cc(OCC(O)CN)c3)nc12 (centres unmarked) [Example 15-8],6.00 to 7.00
7,CNCC(O)COc1cc(OC)cc(-c2cc(N[C@@H]3CCOC3)n3ncc(C(C)C)c3n2)c1 (some centres unmarked) [Example 24-6],> 7.00
8,Cc1cc(CNc2nc(-c3cccc(OCC(O)CN)c3)nc3c2cnn3C2CC2)n(C)n1 (centres unmarked) [Example 24-5],> 7.00
9,NCC(O)COc1cccc(-c2nc(N3CC4CCC(C3)O4)c3cnn(C4CC4)c3n2)c1 (centres unmarked) [Example 16-5],> 7.00
